Results reported in patent US11339168B2, “Crystalline forms of 6-(6-aminopyrazin-2-yl)-N-(4-(4-(oxetan-3-yl)piperazin-1-yl)phenyl)imidazo[1,2-a]pyrazin-8-amine as Syk inhibitors” (Kronos Bio, Inc., priority 2019, dated 2022).
Where a name gives a salt, the structure may show the parent alone.

Assay: Hygroscopicity by dynamic vapor sorption (DVS)
Type: physicochemical
Conditions: for hygroscopicity (DVS analysis), in words: 25° C.; for water absorbed (DVS): 25° C. and 95% RH
Description: Hygroscopicity was studied using dynamic vapor sorption (DVS, TA Q5000 SA, TA Instruments, New Castle, Del. or DVS, DVS Intrinsic, Surface Measurement Systems, London, UK). A sample (2-20 mg) was placed in an aluminum DVS pan and loaded on the sample side of the twin pan balance. The water sorption and desorption were studied as a function of relative humidity (RH) at 25° C. In 10% RH increments, the relative humidity was increased from 5% RH to 95% RH and then decreased back to 5%. […] Data analysis was performed using Universal Analysis 2000 Version 4.7A (TA Instruments, New Castle, Del.) for TA DVS runs and Microsoft Excel for SMS DVS runs.

[1] = for Mono-BSA Form I up to 85% RH

| hygroscopicity (DVS analysis), in words [1] | water uptake (DVS) (90% RH at 25° C.) | water absorbed (DVS) | water uptake (DVS) (85% RH at 25° C.) | hygroscopicity (DVS analysis), in words (above 85% RH, led to deliquescence) | SMILES |
| --- | --- | --- | --- | --- | --- |
| slightly hygroscopic | about 0.4 wt. % |  |  |  | Nc1cncc(-c2cn3ccnc3c(Nc3ccc(N4CCN(C5COC5)CC4)cc3)n2)n1 [Compound I Hemi-Succinate Form I, 6-(6-aminopyrazin-2-yl)-N-(4-(4-(oxetan-3-yl)piperazin-1-yl)phenyl)imidazo[1,2-a]pyrazin-8-amine] |
| slightly hygroscopic |  | about 2 wt. % |  |  | Nc1cncc(-c2cn3ccnc3c(Nc3ccc(N4CCN(C5COC5)CC4)cc3)n2)n1 [Compound I Form II, 6-(6-aminopyrazin-2-yl)-N-(4-(4-(oxetan-3-yl)piperazin-1-yl)phenyl)imidazo[1,2-a]pyrazin-8-amine] |
| slightly hygroscopic |  | about 0.8 wt. % |  |  | Nc1cncc(-c2cn3ccnc3c(Nc3ccc(N4CCN(C5COC5)CC4)cc3)n2)n1 [Compound I Form I, 6-(6-aminopyrazin-2-yl)-N-(4-(4-(oxetan-3-yl)piperazin-1-yl)phenyl)imidazo[1,2-a]pyrazin-8-amine] |
| moderately hygroscopic | about 2.1 wt. % |  |  |  | Nc1cncc(-c2cn3ccnc3c(Nc3ccc(N4CCN(C5COC5)CC4)cc3)n2)n1 [Compound I Sesqui-Adipate Form I, 6-(6-aminopyrazin-2-yl)-N-(4-(4-(oxetan-3-yl)piperazin-1-yl)phenyl)imidazo[1,2-a]pyrazin-8-amine] |
| very hygroscopic | about 16 wt. % |  |  |  | Nc1cncc(-c2cn3ccnc3c(Nc3ccc(N4CCN(C5COC5)CC4)cc3)n2)n1 [Compound I Mono-HCl salt Form II, 6-(6-aminopyrazin-2-yl)-N-(4-(4-(oxetan-3-yl)piperazin-1-yl)phenyl)imidazo[1,2-a]pyrazin-8-amine] |
| slightly hygroscopic |  | about 0.5 wt. % |  |  | Nc1cncc(-c2cn3ccnc3c(Nc3ccc(N4CCN(C5COC5)CC4)cc3)n2)n1 [Compound I Form V, 6-(6-aminopyrazin-2-yl)-N-(4-(4-(oxetan-3-yl)piperazin-1-yl)phenyl)imidazo[1,2-a]pyrazin-8-amine] |
| slightly hygroscopic |  | > 15 wt. % | about 1.5 wt. % | very hygroscopic | Nc1cncc(-c2cn3ccnc3c(Nc3ccc(N4CCN(C5COC5)CC4)cc3)n2)n1 [Compound I Mono-BSA Form I, 6-(6-aminopyrazin-2-yl)-N-(4-(4-(oxetan-3-yl)piperazin-1-yl)phenyl)imidazo[1,2-a]pyrazin-8-amine] |
